Read-outs that look alike come from different tables or passages of the source.
Experiments:
[1] = biological target: human translation (HEK 293F lysate); assay: Human in vitro translation (HsIVT) assay, HEK 293F lysate, luciferase reporter; type: biochemical; conditions: weighted mean ± SD of two technical replicates, read-out: IC50 value (μM) HsIVT
Source text: (§1) Our P. falciparum in vitro translation (PfIVT) assay is built upon previously established assays ([14], [17]) and is summarized in Fig. 1A. In this assay, successful reconstitution of Plasmodium protein translation is reported via synthesis of a luciferase reporter. For PfIVT, two independent untranslated regions (UTRs), previously shown to promote strong levels of translation ([17]), were introduced upstream and downstream of the luciferase. The 5′ UTR from P. falciparum histidine-rich protein 3 (PfHrp3) ([18]) was introduced upstream of the reporter gene, and the 3′ UTR from P. falciparum histidine-rich protein 2 (PfHrp2) gene ([19]) was introduced downstream. For the reporter construct to support our complementary human IVT assay (HsIVT), the 5′ UTR was replaced with an internal ribosome entry site (IRES) from encephalomyocarditis virus (EMCV) ([20]) and the 3′ UTR was replaced with a poly(A) tail ([21]). […] Finally, a 30-bp poly(A) tail, present within the vector and downstream of the luciferase gene, was inserted to enhance mRNA stability ([21]).
(§2) Translationally active P. falciparum or human embryonic kidney (HEK) 293F lysates were supplemented with accessory, helper, amino acid, and energy regeneration solutions (see Materials and Methods for details). In vitro translation reactions were initiated by the addition of purified mRNA to each reaction well. Using this basic assay format, a number of parameters were assessed and optimized, namely, assay temperature, time, mRNA concentration, and reaction volume (summarized in Fig. S2 in the supplemental material). In addition, we compared the luminescence signal of the CBG firefly luciferase with CBG99, derived from the click beetle […] ([18]).
FreeStyle human embryonic kidney (HEK) 293F cells (Thermo Fisher Scientific) were grown in 500-mL polycarbonate Erlenmeyer vented flasks (Corning) containing FreeStyle 293 expression medium (Life Technologies) upon reaching a density of approximately 2 × 10^6. Cells were then centrifuged at 1,000 × g for 10 min at 4°C, the medium was discarded, and the resulting pellet was washed once in buffer II containing 20 U of human placental RNase inhibitor (Sigma-Aldrich) and cOmplete EDTA-free inhibitor cocktail (Roche) before being centrifuged at 2,800 × g for 10 min. Clarified HEK cell lysate was obtained in the same way as described for P. falciparum lysate.
PfIVT and HsIVT reactions (5 μL final volume) were performed in 384-well plates (Corning) containing 50% lysate from cells (either P. falciparum or HEK 293F), 10% amino acid solution (final concentration of 400 μM for each amino acid in 60 mM KOH; biotechrabbit), 10% energy recovery solution (final assay concentrations of 40 mM HEPES [pH 7.4], 1.5 mM ATP, 0.15 mM GTP, […] creatine phosphate, and 40 U/mL creatine phosphokinase), 10% helper solution (final assay concentrations of 200 μM cystine, 2% polyethylene glycol 3000 [PEG 3000], 1 mM spermidine, 0.5 mM folinic acid, and 15 μM leupeptin), 10% supplemental salt solution (22.5 mM HEPES [pH 7.4], 50 mM potassium acetate, 1 mM magnesium acetate, 1 mM DTT, 1 U/mL human placental RNase inhibitor, 0.1 mM leupeptin), and 10% cbg99 luciferase mRNA (3,000 ng/mL). A master mix solution containing all components was prepared on ice prior to assays, and 5 μL was dispensed into wells using an automated Integra VIAFLO 16-channel 12.5-μL pipette.

[2] = biological target: CBG99 luciferase (Pyrophorus plagiophthalamus, UniProt Q7M4K1); assay: Luciferase counterscreen (false-positive counterscreen); type: biochemical, click beetle
Sequence of CBG99 luciferase (Q7M4K1 entry or part of it): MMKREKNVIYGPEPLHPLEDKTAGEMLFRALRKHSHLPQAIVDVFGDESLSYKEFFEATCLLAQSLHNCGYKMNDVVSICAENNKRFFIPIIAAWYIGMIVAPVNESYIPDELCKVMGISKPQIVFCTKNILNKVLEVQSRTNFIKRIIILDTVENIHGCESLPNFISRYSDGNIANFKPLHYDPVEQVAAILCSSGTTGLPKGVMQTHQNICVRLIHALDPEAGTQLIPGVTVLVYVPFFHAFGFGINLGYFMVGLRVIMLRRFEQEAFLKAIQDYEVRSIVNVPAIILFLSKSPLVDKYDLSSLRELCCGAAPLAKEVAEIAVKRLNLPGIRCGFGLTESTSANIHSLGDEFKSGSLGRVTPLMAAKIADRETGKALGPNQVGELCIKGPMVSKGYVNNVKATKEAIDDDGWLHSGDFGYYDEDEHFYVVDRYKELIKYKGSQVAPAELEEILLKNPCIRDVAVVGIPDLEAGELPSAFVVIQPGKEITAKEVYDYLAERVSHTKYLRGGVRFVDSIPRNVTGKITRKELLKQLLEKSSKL
Description: Hits identified in our primary assay screen were assessed for their potential to interfere with the cbg99 luciferase reporter. For this counterscreen, the master mix containing all the components required for translation (as described above) was incubated for 210 min at 32°C, resulting in the in vitro translation of cbg99 luciferase. The produced luciferase was then incubated with test compounds for 5 min prior to the addition of luciferase reaction buffer. […] Hits from the primary screen were assessed as luciferase inhibitors in 8-point dose-dependent assays ranging from 30 μM to 13.7 nM (1:3 dilutions). Levels of luciferase inhibition were determined relative to the positive control.

[3] = biological target: P. falciparum translation (P. falciparum lysate); assay: P. falciparum in vitro translation (PfIVT) assay, lysate-based, luciferase reporter; type: biochemical, Plasmodium falciparum; conditions: for IC50: 8-point, weighted mean ± SD of two technical replicates, read-out: IC50 value (μM) PfIVT; for PfIVT inhibition at 30 μM (%): single-point screen
Source text: as §1, §2
3D7 parasites were synchronized following two rounds of treatment with D-sorbitol (5%), as previously described ([40]). The hematocrit was reduced from 5% (for standard culture) to 1.5 to 2% and cultures were transferred into HYPERflasks (Corning). Fresh medium was added once or twice daily. […] Harvested red blood cells (infected) were lysed by incubation in 0.1% (wt/vol) saponin on ice for 10 min with gentle agitation. Free parasites were harvested by centrifugation (2,800 × g, 10 min, 4°C) and washed 3 times in wash buffer (WB; 100 mM potassium acetate, 2.5 mM magnesium acetate, 45 mM HEPES [pH 7.4], 250 mM sucrose, 2 mM dithiothreitol, and 15 μM leupeptin) to remove lysed red blood cell debris. The resulting pellet was resuspended in 1 volume of WB supplemented with cOmplete EDTA-free protease inhibitor cocktail (Roche; 1 tablet/20 mL) and human RNase A inhibitor (Sigma; 5 U/mL). Parasite lysis was achieved by nitrogen cavitation using a prechilled 45-mL Parr cell disruption vessel (1,500 lb/in^2, 60 min, 4°C). To clarify the lysate, it was centrifuged (10,000 × g, 15 min, 4°C), and the supernatant was collected, transferred into fresh tubes, and centrifuged (30,000 × g, 15 min, 4°C). As a quality assurance step for each lysate, the RNA content of the resulting supernatant was determined using a NanoDrop spectrophotometer (Shimadzu). Supernatants with RNA levels of >250 ng/μL were aliquoted (100 μL), flash frozen in liquid nitrogen, and stored at −80°C.

[4] = Pathogen Box hits; weighted mean ± SD of two technical replicates; read-out: IC50 value (μM) Counterscreen
[5] = Pandemic Box hits; weighted mean ± SD of two technical replicates; read-out: IC50 value (μM) Counterscreen

Compound	IC50 ([1]; Pathogen Box hits)	IC50 [2, 4]	IC50 ([3]; Pathogen Box hits)	PfIVT inhibition at 30 μM (%) ([3]; Pathogen Box)	IC50 ([1]; Pandemic Box hits)	IC50 ([3]; Pandemic Box hits)	PfIVT inhibition at 30 μM (%) ([3]; Pandemic Box)	IC50 [2, 5]	further results
CCCCOC(=O)Nc1cc2[nH]c(C3CCCCC3)nc2cc1N1CCCC1 [MMV687730]	> 30 µM	> 30 µM	3.9 ± 0.8 µM	72.4%					
N=C(N)Nc1ccc(-c2ccc(-c3ccc(N=C(N)N)c(Cl)c3)o2)cc1Cl [MMV688271]	13 ± 0.16 µM	> 30 µM	18 ± 0.9 µM	65.7%					
COc1cc(C2=NCCN2)cc2cc(-c3ccc(C4=NCCN4)cc3)oc12 [MMV688362]	5.6 ± 0.04 µM	> 30 µM	2.8 ± 0.08 µM	93.5%					
COc1cc(C2=NCCN2)ccc1-c1cn(-c2cccc(C3=NCCN3)c2)nn1 [MMV688407]	5.2 ± 0.02 µM	> 30 µM	6 ± 0.09 µM	98.7%					
COc1cc(C2=NCCN2)ccc1-n1cc(-c2cccc(C3=NCCN3)c2)nn1 [MMV688474]	14 ± 0.07 µM	> 30 µM	16 ± 0.9 µM	78.4%					
COc1ccc(C2=NCCN2)cc1-c1cn(-c2cccc(C3=NCCN3)c2)nn1 [MMV688547]	2.7 ± 0.02 µM	> 30 µM	1.8 ± 0.07 µM	96.7%					
CC(=O)Oc1ccccc1C(=O)Nc1ncc([N+](=O)[O-])s1 [MMV688991, nitazoxanide, reference compound]	0.04 ± 0.0003 µM		0.02 ± 0.008 µM	97.0%	0.04 ± 0.0003 µM	0.02 ± 0.007 µM	98.3%		IC50 ([2]; read-out: IC50 value (μM) Counterscreen; Pandemic Box hits; weighted mean ± SD of two technical replicates): 0.04 ± 0.008 µM; IC50 ([2]; read-out: IC50 value (μM) Counterscreen; Pathogen Box hits; weighted mean ± SD of two technical replicates): 0.02 ± 0.008 µM
O=C(Nc1nnc(-c2ccccc2)o1)c1ccc(F)cc1 [MMV1578578]					10 ± 0.12 µM	3.7 ± 0.07 µM	74.6%	1.3 ± 0.08 µM	
CC(Cc1ccccc1)C(=O)Nc1ccc(Cl)cc1C(=O)O (centres unmarked) [MMV1579781]					> 30 µM	8.1 ± 0.09 µM	72.4%	0.5 ± 0.08 µM	
C(=C\c1nc2ccccc2[nH]1)/c1ccc2c(c1)OCO2 [MMV1582495]					3.1 ± 0.04 µM	0.6 ± 0.07 µM	89.9%	1.7 ± 0.08 µM	
Cn1cc(NC(=O)c2cc(NC(=O)c3ccc(/C=C/c4cnc5ccccc5c4)cc3)cn2C)cc1C(=O)NCCN1CCOCC1 [MMV1634391]					1.1 ± 0.01 µM	17 ± 0.6 µM	52.4%	> 30 µM	
CCC[C@@H]1C[C@@H](C(=O)N[C@@H]([C@H]2O[C@H](SC)[C@H](O)[C@@H](O)[C@H]2O)[C@H](C)Cl)N(C)C1 [clindamycin, reference compound]									activity against PfIVT at 100 μM [3]: not active
C[C@H]1c2cccc(O)c2C(=O)C2=C(O)[C@]3(O)C(=O)C(C(N)=O)=C(O)[C@@H](N(C)C)[C@@H]3[C@@H](O)[C@@H]21 [doxycycline, reference compound]									activity against PfIVT at 100 μM [3]: not active

Reference: article PMC9211397, “High-Throughput Screening Platform To Identify Inhibitors of Protein Synthesis with Potential for the Treatment of Malaria” (Antimicrobial Agents and Chemotherapy, 2022)
